Measured values taken from article PMC11329504, “Identification of novel small molecule-based strategies of COL7A1 upregulation and readthrough activity for the treatment of recessive dystrophic epidermolysis bullosa” (Scientific Reports, 2024).

Experiments:
[1] = tested on: BZD; experiment: Selectivity panel (Eurofins): benzodiazepine receptor BZD; type: binding; conditions: for % inhibition, BZD: n = 1, duplicate
[2] = tested on: NHK cells; experiment: Cytotoxicity, ATP levels, normal human keratinocytes (NHK); type: cell-based; conditions: NHK cells, ATP levels, at 100 µM
Procedure, shortened: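 RDEB patient-derived cells, CHO cells or normal human keratinocytes were plated and treated as in the AlphaLISA assay. Viability was read as ATP by ATPlite 1step luminescence; 10 μM staurosporine served as the total-cytotoxicity control.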

[3] = Cytotoxicity, ATP levels (ATPlite), RDEB_L1 cells; type: cell-based; conditions: human, RDEB L1 cells (RDEB patient-derived cell line)
Procedure: The viability of RDEB patient-derived cell lines or NHK was evaluated by measuring the ATP levels as an indirect readout of the potential cytotoxicity effect of compounds. Cells were plated and treated exactly with the same conditions as those followed in the AlphaLISA assay, described above. To measure ATP levels, cells were processed using the ATPlite™ 1step luminescence-based assay (PerkinElmer 6,016,731), following the manufacturer’s protocol. 25 μL of ATPlite™ reagent was added directly over cells and plates were covered with a sealing film and shaken for 25 min using a microtiter plate shaker. Luminescence was measured in a Luminoskan Ascent luminometer (Thermo Fisher Scientific). 10 μM of Staurosporine was used as a reference compound and control for the total cytotoxicity.

In the case of C#Cc1cc(-c2ccncc2)c(-c2cccc(F)c2)nc1N [Compound 7], the “% inhibition, BZD” value ([1]; at 3 μM) is reported as 48%, the “% inhibition, BZD” value ([1]; at 10 μM) is reported as 73% and the “% inhibition, BZD” value ([1]; at 30 μM) is reported as 88%. For the same molecule, the “antagonism/inhibition of benzodiazepine receptor BZD” value ([1]; at concentrations of 3 and 10 µM) was ≥ 50%, the “Cytotox. % inhibition of viability” value [2] was 19% ± 11 at 100 (n=4) and the IC50 [3] was > 100 µM.
